Test results reported in ChEMBL document CHEMBL1777706, “Discovery of selective and orally available spiro-3-piperidyl ATP-competitive MK2 inhibitors” (Bioorg Med Chem Lett, 2011).
Active and inactive are the calls of the source. No cut-off for these calls is given here.

What was measured:
[1] = target: T1, MAP kinase-activated protein kinase 2 (Homo sapiens, UniProt P49137); experiment: Inhibition of MK2 pretreated for 30 mins before fluorescein labeled substrate peptide addition measured after 2 hrs by IMAP assay
THP-1 [2] = experiment: Antiinflammatory activity in human THP1 cells assessed as inhibition of LPS-induced TNFalpha production pretreated 30 mins before LPS challenge measured after 4 hrs; type: functional, cell-based
[3] = target: T1, MAP kinase-activated protein kinase 2; experiment: Inhibition of MK2 in LPS-stimulated human THP1 cells assessed as inhibition of Hsp27 phosphorylation pretreated 60 mins before LPS challenge measured after 10 mins; type: cell-based, THP-1
[4] = Dissociation constant, pKa of the compound at pH 7.4; type: physicochemical
[5] = Half life in human liver microsomes; type: ADME, Microsome
[6] = Half life in rat liver microsomes; type: ADME, Microsome
[7] = AUC in po dosed rat; type: ADME, organism-based; conditions: plasma
THP-1 [8] = experiment: Cytotoxicity against human THP1 cells by Alamar blue assay; type: cell-based
[9] = Inhibition of p38
[10] = target: Serine/threonine-protein kinase pim-1 (Homo sapiens) (UniProt P11309); experiment: Inhibition of PIM1 at 1 uM
[11] = target: Serine/threonine-protein kinase pim-3 (Homo sapiens) (UniProt Q86V86); experiment: Inhibition of PIM3 at 1 uM
[12] = target: Serine/threonine-protein kinase Chk2 (Homo sapiens) (UniProt O96017); experiment: Inhibition of CHK2 at 1 uM
[13] = target: T2, Serine/threonine-protein kinase 17A (Homo sapiens) (UniProt Q9UEE5); experiment: Inhibition of DRAK1 at 1 uM
T2 sequence (whole entry): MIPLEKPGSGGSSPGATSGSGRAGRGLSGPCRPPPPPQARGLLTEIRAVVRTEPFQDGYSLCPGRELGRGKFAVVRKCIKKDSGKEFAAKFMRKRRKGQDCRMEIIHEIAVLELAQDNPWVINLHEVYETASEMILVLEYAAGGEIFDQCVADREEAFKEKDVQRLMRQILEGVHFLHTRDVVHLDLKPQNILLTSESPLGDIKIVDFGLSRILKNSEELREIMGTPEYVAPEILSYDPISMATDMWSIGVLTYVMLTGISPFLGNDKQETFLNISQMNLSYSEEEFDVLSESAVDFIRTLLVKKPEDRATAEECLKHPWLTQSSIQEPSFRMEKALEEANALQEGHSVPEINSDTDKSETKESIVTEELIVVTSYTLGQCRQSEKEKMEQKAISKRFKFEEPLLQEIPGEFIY

[14] = target: Mitogen-activated protein kinase 3 (Homo sapiens) (UniProt P27361); experiment: Inhibition of ERK1 at 1 uM
[15] = target: Mitogen-activated protein kinase 1 (Homo sapiens) (UniProt P28482); experiment: Inhibition of ERK2 at 1 uM
PBMC = experiment: Antiinflammatory activity in human PBMC cells assessed as inhibition of LPS-induced TNFalpha production pretreated 30 mins before LPS challenge measured after 4 hrs by ELISA; type: functional, cell-based
in vitro = conditions: human, Caco-2
Description: Permeability across human Caco2 cells

[16] = target: MAP kinase-activated protein kinase 3 (Homo sapiens) (UniProt Q16644); experiment: Inhibition of MK3 at 1 uM
[17] = target: T3, MAP kinase-activated protein kinase 5 (Homo sapiens) (UniProt Q8IW41); experiment: Inhibition of MK5 at 1 uM
T3 sequence (whole entry): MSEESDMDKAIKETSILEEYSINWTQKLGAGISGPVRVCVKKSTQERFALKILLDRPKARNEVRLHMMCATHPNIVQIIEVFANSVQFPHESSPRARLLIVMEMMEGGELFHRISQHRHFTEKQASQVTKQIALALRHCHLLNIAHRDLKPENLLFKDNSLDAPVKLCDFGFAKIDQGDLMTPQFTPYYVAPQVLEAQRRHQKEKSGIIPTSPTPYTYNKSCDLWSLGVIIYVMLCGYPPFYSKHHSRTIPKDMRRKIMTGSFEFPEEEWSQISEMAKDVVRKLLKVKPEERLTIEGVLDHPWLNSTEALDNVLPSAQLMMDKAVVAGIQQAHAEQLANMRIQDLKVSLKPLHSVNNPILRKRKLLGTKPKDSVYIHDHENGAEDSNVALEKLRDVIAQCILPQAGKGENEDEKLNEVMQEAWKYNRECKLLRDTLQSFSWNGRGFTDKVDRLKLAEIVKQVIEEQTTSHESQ

[18] = Oral bioavailability in mouse; type: ADME, organism-based; conditions: in vivo

Sequence of Serine/threonine-protein kinase Chk2 (Homo sapiens) (O96017 whole entry): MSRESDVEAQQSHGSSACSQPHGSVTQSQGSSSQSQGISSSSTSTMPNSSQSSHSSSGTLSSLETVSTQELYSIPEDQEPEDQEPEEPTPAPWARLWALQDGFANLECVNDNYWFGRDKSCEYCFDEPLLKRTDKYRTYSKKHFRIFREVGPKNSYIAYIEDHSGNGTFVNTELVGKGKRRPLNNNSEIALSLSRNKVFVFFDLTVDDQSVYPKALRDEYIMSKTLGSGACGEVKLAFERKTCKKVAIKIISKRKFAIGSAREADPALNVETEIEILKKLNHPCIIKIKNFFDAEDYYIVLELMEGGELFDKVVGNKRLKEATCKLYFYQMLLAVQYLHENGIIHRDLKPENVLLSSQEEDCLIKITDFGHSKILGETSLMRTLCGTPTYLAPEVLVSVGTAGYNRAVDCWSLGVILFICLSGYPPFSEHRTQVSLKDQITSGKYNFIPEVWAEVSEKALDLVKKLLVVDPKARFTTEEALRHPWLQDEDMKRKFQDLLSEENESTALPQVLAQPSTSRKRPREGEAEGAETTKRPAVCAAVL
T1 sequence (P49137 whole entry): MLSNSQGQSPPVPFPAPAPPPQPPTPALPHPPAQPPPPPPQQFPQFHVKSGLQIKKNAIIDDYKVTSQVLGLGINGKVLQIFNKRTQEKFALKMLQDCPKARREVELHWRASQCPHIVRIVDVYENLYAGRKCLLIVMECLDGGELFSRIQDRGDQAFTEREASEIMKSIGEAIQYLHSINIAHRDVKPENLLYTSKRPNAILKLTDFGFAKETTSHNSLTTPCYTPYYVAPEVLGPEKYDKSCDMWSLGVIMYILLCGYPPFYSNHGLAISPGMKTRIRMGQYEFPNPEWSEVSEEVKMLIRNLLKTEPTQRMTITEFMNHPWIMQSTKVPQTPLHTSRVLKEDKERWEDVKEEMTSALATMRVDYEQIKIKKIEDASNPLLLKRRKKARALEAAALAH
Sequence of Mitogen-activated protein kinase 3 (Homo sapiens) (P27361 whole entry): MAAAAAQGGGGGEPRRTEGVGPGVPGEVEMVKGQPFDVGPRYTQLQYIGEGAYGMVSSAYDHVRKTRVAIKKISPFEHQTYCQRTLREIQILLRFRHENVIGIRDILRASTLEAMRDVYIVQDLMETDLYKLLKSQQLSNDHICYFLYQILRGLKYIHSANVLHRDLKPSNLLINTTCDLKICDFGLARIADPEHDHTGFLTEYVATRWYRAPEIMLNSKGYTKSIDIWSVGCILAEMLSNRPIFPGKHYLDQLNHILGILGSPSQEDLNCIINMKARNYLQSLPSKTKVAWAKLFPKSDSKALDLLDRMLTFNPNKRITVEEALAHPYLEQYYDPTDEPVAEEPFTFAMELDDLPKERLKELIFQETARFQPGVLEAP
Sequence of Mitogen-activated protein kinase 1 (Homo sapiens) (P28482 whole entry, looked up): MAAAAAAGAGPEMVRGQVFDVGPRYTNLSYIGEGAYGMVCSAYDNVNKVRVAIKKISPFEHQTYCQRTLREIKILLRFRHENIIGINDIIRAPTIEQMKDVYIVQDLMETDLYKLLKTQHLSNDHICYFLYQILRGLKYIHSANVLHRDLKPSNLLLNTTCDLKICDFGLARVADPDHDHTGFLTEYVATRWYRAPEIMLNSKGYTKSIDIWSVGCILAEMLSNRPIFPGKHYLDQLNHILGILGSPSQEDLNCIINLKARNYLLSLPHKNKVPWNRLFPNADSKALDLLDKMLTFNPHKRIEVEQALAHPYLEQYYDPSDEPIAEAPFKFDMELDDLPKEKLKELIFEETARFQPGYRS
Sequence of Serine/threonine-protein kinase pim-1 (Homo sapiens) (P11309 whole entry, looked up): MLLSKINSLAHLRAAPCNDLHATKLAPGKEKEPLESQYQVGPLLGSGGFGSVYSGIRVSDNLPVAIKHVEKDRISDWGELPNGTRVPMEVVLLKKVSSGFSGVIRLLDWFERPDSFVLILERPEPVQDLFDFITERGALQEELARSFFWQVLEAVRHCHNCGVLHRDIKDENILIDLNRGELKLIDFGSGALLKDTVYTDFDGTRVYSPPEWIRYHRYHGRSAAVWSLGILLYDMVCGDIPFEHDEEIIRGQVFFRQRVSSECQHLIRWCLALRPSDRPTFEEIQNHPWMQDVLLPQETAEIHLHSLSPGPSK
Sequence of MAP kinase-activated protein kinase 3 (Homo sapiens) (Q16644 whole entry, looked up): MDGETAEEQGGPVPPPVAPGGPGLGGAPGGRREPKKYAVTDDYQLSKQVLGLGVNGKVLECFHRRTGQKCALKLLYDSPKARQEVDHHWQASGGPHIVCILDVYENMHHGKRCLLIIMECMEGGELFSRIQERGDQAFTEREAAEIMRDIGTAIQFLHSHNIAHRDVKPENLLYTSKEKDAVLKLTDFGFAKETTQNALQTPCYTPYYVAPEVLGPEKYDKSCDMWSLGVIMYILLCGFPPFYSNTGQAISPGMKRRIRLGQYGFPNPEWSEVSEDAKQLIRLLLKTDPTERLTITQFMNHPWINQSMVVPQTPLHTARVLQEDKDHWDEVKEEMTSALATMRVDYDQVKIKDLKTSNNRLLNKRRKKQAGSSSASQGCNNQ

SMILES	EC50 [1]	EC50 (THP-1 [2])	EC50 [3]	pKa [4]	half-life [5]	half-life [6]	AUC [7]	inhibition [9]	inhibition [10]	inhibition [11]	inhibition [12]	inhibition [13]	inhibition [14]	inhibition [15]	Papp (in vitro)	inhibition [16]	inhibition [17]	bioavailability [18]	Activity (THP-1 [8])	EC50 (PBMC)
O=C1NC[C@]2(CCCNC2)c2[nH]c(-c3ccnc(-c4ccc5c(c4)OCO5)n3)cc21	91 nM	8300 nM	7700 nM	–	–	–	–	inactive	> 80%	> 80%	> 80%	> 80%	> 80%	> 80%	–	–	–	–	–	3000 nM
CN1CCC2(CC1)CNC(=O)c1cc(-c3ccnc(-c4cc5ccccc5o4)n3)[nH]c12	13 nM	470 nM	1600 nM	8.1	> 1 h	> 1 h	0.078 µM·h	inactive	> 80%	> 80%	> 80%	> 80%	> 80%	> 80%	1 ×10⁻⁶ cm/s	–	–	–	> 10 µM	–
COCCCOc1ccc(-c2nccc(-c3cc4c([nH]3)C3(CCCNC3)CNC4=O)n2)cn1 (racemic)	21 nM	1500 nM	1400 nM	8.2	> 1 h	> 1 h	0.882 µM·h	inactive	> 80%	> 80%	> 80%	> 80%	> 80%	> 80%	4.2 ×10⁻⁶ cm/s	–	–	–	–	920 nM
COc1cncc(-c2nccc(-c3cc4c([nH]3)C3(CCCNC3)CNC4=O)n2)c1 (racemic)	24 nM	1400 nM	900 nM	8.4	0.945 h	0.702 h	–	inactive	> 80%	> 80%	> 80%	> 80%	> 80%	> 80%	–	> 95%	> 95%	–	–	1000 nM
O=C1NCC2(CCCNC2)c2[nH]c(-c3ccnc(-c4cc5ccccc5o4)n3)cc21 (racemic)	11 nM	–	–	8.4	> 1 h	> 1 h	0.472 µM·h	inactive	> 80%	> 80%	> 80%	> 80%	> 80%	> 80%	1.5 ×10⁻⁶ cm/s	–	–	–	Non-toxic	–
O=C1NCC2(CCCNC2)c2[nH]c(-c3ccnc(-c4ccc5c(c4)OCO5)n3)cc21 (racemic)	28 nM	1400 nM	930 nM	8.3	> 1 h	0.808 h	3.21 µM·h	inactive	> 80%	> 80%	> 80%	> 80%	> 80%	> 80%	3.4 ×10⁻⁶ cm/s	> 95%	> 95%	48%	–	1100 nM
O=C1NCC2(CCCNC2)c2[nH]c(-c3ccnc(-c4cccnc4)n3)cc21 (racemic)	18 nM	3000 nM	2100 nM	–	–	–	–	inactive	> 80%	> 80%	> 80%	> 80%	> 80%	> 80%	–	–	–	–	–	3300 nM
CCN1CCC2(CC1)CNC(=O)c1cc(-c3ccnc(-c4cc5ccccc5o4)n3)[nH]c12	59 nM	1600 nM	> 10000 nM	8.6	> 1 h	> 0.993 h	0.154 µM·h	inactive	> 80%	> 80%	> 80%	> 80%	> 80%	> 80%	0.8 ×10⁻⁶ cm/s	–	–	–	> 10 µM	–
COCCCOc1ccc(-c2nccc(-c3cc4c([nH]3)[C@@]3(CCCNC3)CNC4=O)n2)cn1	129 nM	> 10000 nM	> 10000 nM	–	–	–	–	inactive	> 80%	> 80%	> 80%	> 80%	> 80%	> 80%	–	–	–	–	–	6900 nM

Compounds with a lower EC50 [1], results first:

EC50 [1]	EC50 (THP-1 [2])	EC50 [3]	pKa [4]	half-life [5]	half-life [6]	AUC [7]	inhibition [9]	inhibition [10]	inhibition [11]	inhibition [12]	inhibition [13]	inhibition [14]	inhibition [15]	Papp (in vitro)	inhibition [16]	inhibition [17]	bioavailability [18]	SMILES	Activity (THP-1 [8])	EC50 (PBMC)
5.9 nM	280 nM	1200 nM	9.1	> 1 h	> 1 h	< 0.006 µM·h	inactive	> 80%	> 80%	> 80%	> 80%	> 80%	> 80%	–	–	–	–	O=C1NCC2(CCNCC2)c2[nH]c(-c3ccnc(-c4cc5ccccc5o4)n3)cc21	> 10 µM	–
6.5 nM	1600 nM	1200 nM	–	–	–	–	inactive	> 80%	> 80%	> 80%	> 80%	> 80%	> 80%	–	–	–	–	O=C1NC[C@@]2(CCCNC2)c2[nH]c(-c3ccnc(-c4cccnc4)n3)cc21	–	930 nM
4.3 nM	910 nM	620 nM	9.3	> 1 h	> 1 h	< 0.006 µM·h	inactive	> 80%	> 80%	> 80%	> 80%	> 80%	> 80%	0.1 ×10⁻⁶ cm/s	–	–	0.7%	O=C1NCC2(CCNCC2)c2[nH]c(-c3ccnc(-c4ccc5c(c4)OCO5)n3)cc21	–	–
6.9 nM	980 nM	400 nM	–	–	–	–	inactive	> 80%	> 80%	> 80%	> 80%	> 80%	> 80%	–	–	–	–	COCCCOc1ccc(-c2nccc(-c3cc4c([nH]3)[C@]3(CCCNC3)CNC4=O)n2)cn1	–	430 nM
7.4 nM	850 nM	500 nM	–	–	–	–	inactive	> 80%	> 80%	> 80%	> 80%	> 80%	> 80%	–	–	–	–	O=C1NC[C@@]2(CCCNC2)c2[nH]c(-c3ccnc(-c4ccc5c(c4)OCO5)n3)cc21	–	450 nM
9.3 nM	2400 nM	1100 nM	–	–	–	–	inactive	> 80%	> 80%	> 80%	> 80%	> 80%	> 80%	–	–	–	–	COc1cncc(-c2nccc(-c3cc4c([nH]3)[C@]3(CCCNC3)CNC4=O)n2)c1	–	1300 nM
